Laboratory results taken from US10172953B2, “XTEN conjugate compositions and methods of making same” (Amunix Operating Inc., priority 2012, dated 2019).
Square brackets hold non-standard residues; d marks the D form. Peptide text beside a SMILES is read from it. * marks the point of attachment. Dolaproine = CO[C@@H]([C@@H]1CCCN1)[C@@H](C)C(=O)O; Dil = CC[C@H](C)[C@H](NC)[C@@H](CC(=O)O)OC; X1 = C[C@@H](N*)[C@@H](O)c1ccccc1; NMeV = CN[C@H](C(=O)O)C(C)C

Key:
[1] = system: folate receptor-positive KB cell line; test: CellTiter-Glo anti-proliferation assay on KB cells; type: cell-based; conditions: absence of folic acid competitor, read-out: IC50 (cell killing)
Description: The ability to selectively target and kill cells bearing folate receptors was evaluated. Test articles of free MMAE, a non-targeting 3×MMAE-XTEN conjugate (XTEN linked to toxin) and the folate receptor-targeted 3×FA(γ),3×MMAE-XTEN conjugate were evaluated in a CellTiter-Glo anti-proliferation assay using the folate receptor-positive KB cell line. As culture media contain high folic acid content, KB cells were grown in folic acid-free media containing 10% heat-inactivated fetal calf serum at 37° C., 5% C02 for at least 7 days prior to the commencement of the cell viability experiment, This medium was also utilized for the execution of the experiment. In brief, KB cells were plated at 10,000 cells per well onto a 96-well microtiter assay plate. KB cells were allowed to adhere to the plate by an overnight incubation at 37° C., 5% CO2. The spent media was then removed and wells designated to contain folic acid competitor received assay medium containing folic acid, while wells not designated to have folic acid competitor received assay medium only. The plate was incubated for 30 min at 37° C., 5% CO2 before the assay media was aspirated and plate washed with assay media. […] After the appropriate incubation period, CellTiter-Glo reagent was added and the plate was read on a luminometer. The IC50 of each test article was determined using a 4 parameter logistic curve fit using GraphPad Prism.

[2] = rats, intravenous administration; cited from earlier work

## CC[C@H](C)[C@@H]([C@@H](CC(=O)N1CCC[C@H]1[C@H](OC)[C@@H](C)C(=O)N[C@H](C)[C@@H](O)c1ccccc1)OC)N(C)C(=O)[C@@H](NC(=O)[C@@H](NC)C(C)C)C(C)C [MMAE, monomethyl auristatin E] (H-[NMeV]V[Dil][Dolaproine]-X1)
[1]
  IC50: 0.8 nM

B1: follistatin: protein encoded by the FST gene (protein, UniProt P19883 30-344, looked up)
Follistatin: GNCWLRQAKNGRCQVLYKTELSKEECCSTGRLSTSWTEEDVNDNTLFKWMIFNGGAPNCIPCKETCENVDCGPGKKCRMNKKNKPRCVCAPDCSNITWKGPVCGLDGKTYRNECALLKARCKEQPELEVQYQGRCKKTCRDVFCPGSSTCVVDQTNNAYCVTCNRICPEPASSEQYLCGNDGVTYSSACHLRKATCLLGRSIGLAYEGKCIKAKSCEDIQCTGGKKCLWDFKVGRGRCSLCDELCPDSKSDEPVCASDNATYASECAMKEAACSSGVLLEVKHSGSCNSISEDTEEEEEDEDQDYSFPISSILEW
[2]
  terminal half-life: over 2 hours
